Results from patent publication US9029377B2, “Platelet-activating factor receptor antagonists” (Merck Sharp & Dohme Corp., priority 2009, dated 2015).
pIC50: −log10 of the molar value.

These molecules were tested against PAFR (Homo sapiens, UniProt P25105) (assay: PAF Binding Assay (PAFR binding)).
Sequence of PAFR (P25105 whole entry): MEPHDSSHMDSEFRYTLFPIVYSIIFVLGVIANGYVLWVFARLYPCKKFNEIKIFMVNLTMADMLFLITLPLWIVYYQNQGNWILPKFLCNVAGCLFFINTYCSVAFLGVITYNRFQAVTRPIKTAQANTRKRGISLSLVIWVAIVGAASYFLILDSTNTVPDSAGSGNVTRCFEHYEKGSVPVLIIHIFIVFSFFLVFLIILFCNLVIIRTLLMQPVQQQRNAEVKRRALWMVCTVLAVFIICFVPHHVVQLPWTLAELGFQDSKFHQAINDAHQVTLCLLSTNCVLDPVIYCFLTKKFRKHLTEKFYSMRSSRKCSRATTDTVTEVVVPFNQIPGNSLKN

Row | Compound | pIC50
1 | CCc1cc(-c2ccc(OC(F)(F)F)cc2)ccc1S(=O)(=O)N[C@H]1CCC[C@@H](n2cnnc2)C1 [Compound 2b, 3-ethyl-N-[(1S,3R)-3-(4H-1,2,4-triazol-4-yl)cyclohexyl]-4′-(trifluoromethoxy)biphenyl-4-sulfonamide] | 8.44
2 | O=S(=O)(N[C@H]1CCC[C@@H](n2cnnc2)C1)c1cc(-c2ccc3nc(C(F)(F)F)cn3n2)cc(C(F)(F)F)c1 [Compound 3Aaj, N-[(1S,3R)-3-(4H-1,2,4-triazol-4-yl)cyclohexyl]-3-(trifluoromethyl)-5-[2-(trifluoromethyl)imidazo[1,2-b]pyridazin-6-yl]benzenesulfonamide] | 7.57
3 | CCc1cc(-c2ccc(C#N)nc2)ccc1S(=O)(=O)N[C@H]1CCC[C@@H](n2cnnc2)C1 [Compound 2Ah, 4-(6-cyanopyridin-3-yl)-2-ethyl-N-[(1S,3R)-3-(4H-1,2,4-triazol-4-yl)cyclohexyl]benzenesulfonamide] | 6.24
4 | CCCCOc1ccc(S(=O)(=O)N[C@H]2CCC[C@@H](n3cnnc3C3CC3)C2)cc1F [Compound 2Oaf, 4-butoxy-N-[(1S,3R)-3-(3-cyclopropyl-4H-1,2,4-triazol-4-yl)cyclohexyl]-3-fluorobenzenesulfonamide] | 8.77
5 | Cc1nncn1[C@@H]1CCC[C@H](NS(=O)(=O)c2ccc(C(C)C)cc2)C1 [Compound 2Nq, 4-isopropyl-N-[(1S,3R)-3-(3-methyl-4H-1,2,4-triazol-4-yl)cyclohexyl]benzenesulfonamide] | 7.55
6 | CCc1cc(-c2ccc(NC(C)=O)cc2)ccc1S(=O)(=O)N[C@H]1CCC[C@@H](n2cnnc2)C1 [Compound 2Aao, N′-[3′-ethyl-4′-({[(1S,3R)-3-(4H-1,2,4-triazol-4-yl)cyclohexyl]amino}sulfonyl)biphenyl-4-yl]acetamide] | 7.24
7 | O=S(=O)(N[C@H]1CCC[C@@H](n2cnnc2)C1)c1cc(-c2ccncc2)cc(C(F)(F)F)c1 [Compound 3An, 3-pyridin-4-yl-N-[(1S,3R)-3-(4H-1,2,4-triazol-4-yl)cyclohexyl]-5-(trifluoromethyl)benzenesulfonamide] | 7.44
8 | O=S(=O)(N[C@H]1CCC[C@@H](n2cnnc2)C1)c1cc(-c2ccnc3ccnn23)cc(C(F)(F)F)c1 [Compound 9c, 3-pyrazolo[1,5-a]pyrimidin-7-yl-N-[(1S,3R)-3-(4H-1,2,4-triazol-4-yl)cyclohexyl]-5-(trifluoromethyl)benzenesulfonamide] | 8.23
9 | Cc1nncn1[C@@H]1CCC[C@H](NS(=O)(=O)c2ccc(-c3ccc(OC(F)(F)F)cc3)cc2OC(F)(F)F)C1 [Compound 2Bbd, N-[(1S,3R)-3-(3-methyl-4H-1,2,4-triazol-4-yl)cyclohexyl]-3,4′-bis(trifluoromethoxy)biphenyl-4-sulfonamide] | 8.21
10 | O=S(=O)(N[C@H]1CCC[C@@H](n2cnnc2)C1)c1cccc(OC(F)(F)F)c1 [Compound 2Mc, N-[(1S,3R)-3-(4H-1,2,4-triazol-4-yl)cyclohexyl]-3-(trifluoromethoxy)benzenesulfonamide] | 6.39
11 | CCc1cc(-c2cc(OC)cc(OC)c2)ccc1S(=O)(=O)N[C@H]1CCC[C@@H](n2cnnc2)C1 [Compound 2Au, 3-ethyl-3′,5′-dimethoxy-N-[(1S,3R)-3-(4H-1,2,4-triazol-4-yl)cyclohexyl]biphenyl-4-sulfonamide] | 7.72
12 | CCc1cc(-c2ccc(OC(F)(F)F)c(F)c2)ccc1S(=O)(=O)N[C@H]1CCC[C@@H](n2cnnc2C)C1 [Compound 2Abf, 3-ethyl-3′-fluoro-N-[(1S,3R)-3-(3-methyl-4H-1,2,4-triazol-4-yl)cyclohexyl]-4′-(trifluoromethoxy)biphenyl-4-sulfonamide] | 8.57
13 | CCc1cc(-c2ccnnc2)cc(S(=O)(=O)N[C@H]2CCC[C@@H](n3cnnc3)C2)c1 [Compound 3Baz, 3-ethyl-5-pyridazin-4-yl-N-[(1S,3R)-3-(4H-1,2,4-triazol-4-yl)cyclohexyl]benzenesulfonamide] | 6.68
